Data from patent US10934298B2, “Substituted pyrazolo[1,5-a]pyrimidines for the treatment of medical disorders” (BIAL—BioTech Investments, Inc., priority 2016, dated 2021).

Biological target: T1, glucocerebrosidase (Gcase) (Homo sapiens, UniProt P04062)
T1 construct: micellar solution containing 10 nM GCase and 100 nM saposin C
T1 sequence (P04062 40-536): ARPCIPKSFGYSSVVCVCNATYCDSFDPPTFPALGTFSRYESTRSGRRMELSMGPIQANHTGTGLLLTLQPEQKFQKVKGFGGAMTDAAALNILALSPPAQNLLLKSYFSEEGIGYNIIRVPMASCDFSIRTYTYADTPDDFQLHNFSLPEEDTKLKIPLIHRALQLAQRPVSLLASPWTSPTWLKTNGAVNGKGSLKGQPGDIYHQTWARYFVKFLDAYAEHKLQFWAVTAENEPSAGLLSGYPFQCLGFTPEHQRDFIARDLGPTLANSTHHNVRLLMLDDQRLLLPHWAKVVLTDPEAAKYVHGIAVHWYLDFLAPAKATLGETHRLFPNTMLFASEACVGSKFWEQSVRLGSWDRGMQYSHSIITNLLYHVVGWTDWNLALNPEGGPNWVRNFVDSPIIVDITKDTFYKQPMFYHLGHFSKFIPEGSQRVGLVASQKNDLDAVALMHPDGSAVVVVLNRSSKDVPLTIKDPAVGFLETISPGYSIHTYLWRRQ
Assay: Glucocerebrosidase (Gcase) activation assay with 4-methylumbelliferyl-beta-D-glucopyranoside substrate, saposin C and phosphatidylserine/triton micelles, fluorescence readout
Type: biochemical
Method in brief: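 Readout is endpoint fluorescence (ex 365, em 440 nm) after glycine pH 12.5 stop of a 15-min room-temperature reaction. Enzyme mix: GCase 10 nM plus saposin C 100 nM in 0.37 mol % PS/0.32 mM triton micelles, pH 4.7, compound pre-incubated 30 min; substrate solution 2 mM before 1:1 mixing. Tested at 1.0/0.1 μM, then 3-fold, 8-point series up to 5 μM.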

SMILES | Percent Gcase Activation, 0.1 μM Test Compound (0.1 μM test compound) | Percent Gcase Activation, 1 μM Test Compound (1 μM test compound) | Percent Gcase Activation, 0.1 μM Test Compound (test compound at 0.1 μM) | Percent Gcase Activation, 1 μM Test Compound (test compound at 1.0 μM) | other results
COCOc1cccc(-c2cc(C)n3ncc(C(=O)N[C@@H](C4CC4)C(F)(F)F)c3n2)n1 [III-384] | ** (Gcase activation in the range of 10% up to 20%) | +++ (Gcase activation greater than 60%) |  |  | 
Cc1cc(-c2cccc(C(N)=O)n2)nc2c(C(=O)NC(C3CC3)C(F)(F)F)cnn12 (stereo not shown) [III-161] |  |  | * (less than 10% Gcase activation) | +++ (Gcase activation greater than 60%) | 
COc1cccc(-c2cc(C)n3ncc(C(=O)N[C@H](C)C(F)(F)F)c3n2)c1 [III-90] |  |  | *** (greater than 20% Gcase activation) | +++ (Gcase activation greater than 60%) | 
Cc1cc(-c2ccc(F)cc2)n2ncc(C(=O)N[C@@H](C)C3CC3)c2n1 [III-8] |  |  |  |  | Percent Gcase Activation, 0.1 μM Test Compound (0.1 μM test compound, Table 3A): * (less than 10% Gcase activation); Percent Gcase Activation, 1 μM Test Compound (1 μM test compound, Table 3A): + (less than 30% Gcase activation)
Cc1cc(-c2cccc3ncoc23)nc2c(C(=O)N[C@@H](C)C3CC3)cnn12 [III-217] |  |  | ** (Gcase activation in the range of 10% up to 20%) | +++ (Gcase activation greater than 60%) | 
Cc1cc(-c2ccc(F)c(C#N)c2)nc2c(C(=O)NC(C3CC3)C(F)(F)F)cnn12 (stereo not shown) [III-158] |  |  | *** (greater than 20% Gcase activation) | +++ (Gcase activation greater than 60%) | 
Cc1occc1-c1cc(C)n2ncc(C(=O)N[C@H](C)C(F)(F)F)c2n1 [III-340] | *** (greater than 20% Gcase activation) | +++ (Gcase activation greater than 60%) |  |  | 
Cc1cc(-c2ccncc2)nc2c(C(=O)NC(C)(C)C3CC3)cnn12 [III-20] |  |  |  |  | Percent Gcase Activation, 0.1 μM Test Compound (0.1 μM test compound, Table 3A): * (less than 10% Gcase activation); Percent Gcase Activation, 1 μM Test Compound (1 μM test compound, Table 3A): +++ (Gcase activation greater than 60%)
Cc1cncc(-c2cc(C)n3ncc(C(=O)NC(C)C(F)(F)F)c3n2)c1 (stereo not shown) [III-282] |  |  | ** (Gcase activation in the range of 10% up to 20%) | +++ (Gcase activation greater than 60%) | 
Cc1cc(-c2ccon2)nc2c(C(=O)N[C@@H](C3CC3)C(F)(F)F)cnn12 [III-241] |  |  | *** (greater than 20% Gcase activation) | +++ (Gcase activation greater than 60%) | 
Cc1cc(-c2c(F)cccc2C#N)nc2c(C(=O)N[C@@H](C)C3CC3)cnn12 [III-397] | ** (Gcase activation in the range of 10% up to 20%) | +++ (Gcase activation greater than 60%) |  |  | 
Cc1cc(N2CC(C(C)C)OC2=O)nc2c(C(=O)NC(C3CC3)C(F)(F)F)cnn12 (stereo not shown) [III-316] | ** (Gcase activation in the range of 10% up to 20%) | +++ (Gcase activation greater than 60%) |  |  | 
Cc1cc(Cl)nc2c(C(=O)NC(C3CC3)C(F)(F)F)cnn12 (stereo not shown) [III-45] |  |  |  |  | Percent Gcase Activation, 0.1 μM Test Compound (0.1 μM test compound, Table 3A): *** (greater than 20% Gcase activation); Percent Gcase Activation, 1 μM Test Compound (1 μM test compound, Table 3A): +++ (Gcase activation greater than 60%)
Cc1cc(N2CCCN(C(C)C)C2=O)nc2c(C(=O)NC(C)(C)C(F)(F)F)cnn12 [III-262] |  |  | * (less than 10% Gcase activation) | + (less than 30% Gcase activation) | 
Cc1cc(C)n2ncc(C(=O)NC(C)(C)C3CC3)c2n1 [III-2] |  |  |  |  | Percent Gcase Activation, 0.1 μM Test Compound (0.1 μM test compound, Table 3A): ** (Gcase activation in the range of 10% up to 20%); Percent Gcase Activation, 1 μM Test Compound (1 μM test compound, Table 3A): +++ (Gcase activation greater than 60%)
CNc1cc(C)n2ncc(C(=O)N[C@@H](C)C3CC3)c2n1 [III-6] |  |  |  |  | Percent Gcase Activation, 0.1 μM Test Compound (0.1 μM test compound, Table 3A): * (less than 10% Gcase activation); Percent Gcase Activation, 1 μM Test Compound (1 μM test compound, Table 3A): ++ (Gcase activation in the range of 30% up to 60%)
CCc1cc(N2CCN(C(C)C)C2=O)nc2c(C(=O)NC(C)(C)C)cnn12 [III-229] |  |  | * (less than 10% Gcase activation) | ++ (Gcase activation in the range of 30% up to 60%) | 
COc1c(C#N)cccc1-c1cc(C)n2ncc(C(=O)N[C@H](C)C3CC3)c2n1 [III-144] |  |  | * (less than 10% Gcase activation) | + (less than 30% Gcase activation) | 
Cc1cc(N2C[C@@H](c3ccccc3)OC2=O)nc2c(C(=O)NC(C3CC3)C(F)(F)F)cnn12 (stereo partly shown) [III-315] | *** (greater than 20% Gcase activation) | +++ (Gcase activation greater than 60%) |  |  | 
Cc1cc(-c2cccnc2)nc2c(C(=O)NC(C3CC3)C(F)(F)F)cnn12 (stereo not shown) [III-35] |  |  |  |  | Percent Gcase Activation, 0.1 μM Test Compound (0.1 μM test compound, Table 3A): ** (Gcase activation in the range of 10% up to 20%); Percent Gcase Activation, 1 μM Test Compound (1 μM test compound, Table 3A): +++ (Gcase activation greater than 60%)
Cc1cc(C)n2ncc(C(=O)Nc3ccc(C#CCN(C)C)cc3)c2n1 [IV-2] |  |  |  |  | Percent Gease Activation, 0.1 μM Test Compound (0.1 μM test compound, Table 4): * (less than 10% Gcase activation); Percent Gease Activation, 1 μM Test Compound (1 μM test compound, Table 4): + (less than 30% Gcase activation)
Cc1cnc(F)c(-c2cc(C)n3ncc(C(=O)N[C@@H](C4CC4)C(F)(F)F)c3n2)c1 [III-375] | *** (greater than 20% Gcase activation) | +++ (Gcase activation greater than 60%) |  |  | 
Cc1cc(-c2cccc(F)n2)nc2c(C(=O)N[C@H](C)C3CC3)cnn12 [III-135] |  |  | ** (Gcase activation in the range of 10% up to 20%) | +++ (Gcase activation greater than 60%) | 
Cc1cc(-c2cccc(F)c2C#N)nc2c(C(=O)N[C@@H](C)C3CC3)cnn12 [III-398] | *** (greater than 20% Gcase activation) | +++ (Gcase activation greater than 60%) |  |  | 
Cc1cc(C)n2ncc(C(=O)N[C@@H](C)C3CC3)c2n1 [III-1] |  |  |  |  | Percent Gcase Activation, 0.1 μM Test Compound (0.1 μM test compound, Table 3A): * (less than 10% Gcase activation); Percent Gcase Activation, 1 μM Test Compound (1 μM test compound, Table 3A): ++ (Gcase activation in the range of 30% up to 60%)
Cc1cc(-c2ccoc2)nc2c(C(=O)N[C@H](C)C(F)(F)F)cnn12 [III-337] | *** (greater than 20% Gcase activation) | +++ (Gcase activation greater than 60%) |  |  | 
Cc1cc(-c2cncc(C#N)c2)nc2c(C(=O)NC(C)(C)C3CC3)cnn12 [III-369] | ** (Gcase activation in the range of 10% up to 20%) | +++ (Gcase activation greater than 60%) |  |  | 
Cc1cc(-c2cccc(F)c2C#N)nc2c(C(=O)N[C@@H](C)C(F)(F)F)cnn12 [III-399] | *** (greater than 20% Gcase activation) | +++ (Gcase activation greater than 60%) |  |  | 

The next lines start with results.

Percent Gcase Activation, 0.1 μM Test Compound (0.1 μM test compound) | Percent Gcase Activation, 1 μM Test Compound (1 μM test compound) | Percent Gcase Activation, 0.1 μM Test Compound (test compound at 0.1 μM) | Percent Gcase Activation, 1 μM Test Compound (test compound at 1.0 μM) | SMILES | other results
*** (greater than 20% Gcase activation) | +++ (Gcase activation greater than 60%) |  |  | Cc1cc(-c2cccc(Cl)c2)nc2c(C(=O)NC(C)(C)C(F)(F)F)cnn12 [III-406] | 
 |  | *** (greater than 20% Gcase activation) | +++ (Gcase activation greater than 60%) | Cc1cc(-c2cncc(Cl)c2)nc2c(C(=O)NC(C3CC3)C(F)(F)F)cnn12 (stereo not shown) [III-119] | 
 |  | *** (greater than 20% Gcase activation) | +++ (Gcase activation greater than 60%) | Cc1cc(-c2ccc3c(c2)OCO3)nc2c(C(=O)N[C@@H](C)C3CC3)cnn12 [III-210] | 
*** (greater than 20% Gcase activation) | +++ (Gcase activation greater than 60%) |  |  | Cc1nc2cc(-c3cc(C)n4ncc(C(=O)N[C@@H](C)C5CC5)c4n3)ccc2o1 [III-321] | 
 |  | * (less than 10% Gcase activation) | + (less than 30% Gcase activation) | Cc1cc(-c2cccnc2)nc2c(C(=O)N[C@H](C)C3CC3)cnn12 [III-87] | 
 |  | *** (greater than 20% Gcase activation) | +++ (Gcase activation greater than 60%) | Cc1cc(-c2cccc3ncoc23)nc2c(C(=O)NC(C)(C)C3CC3)cnn12 [III-223] | 
*** (greater than 20% Gcase activation) | +++ (Gcase activation greater than 60%) |  |  | Cc1cc(-c2cncc(Cl)c2)nc2c(C(=O)NC(C)(C)C3CC3)cnn12 [III-292] | 
 |  | *** (greater than 20% Gcase activation) | +++ (Gcase activation greater than 60%) | Cc1cc(-c2cc(F)ccn2)nc2c(C(=O)NC(C3CC3)C(F)(F)F)cnn12 (stereo not shown) [III-205] | 
 |  | * (less than 10% Gcase activation) | +++ (Gcase activation greater than 60%) | Cc1ccncc1-c1cc(C)n2ncc(C(=O)NC(C3CC3)C(F)(F)F)c2n1 (stereo not shown) [III-274] | 
 |  | *** (greater than 20% Gcase activation) | +++ (Gcase activation greater than 60%) | Cc1cc(-c2cccc(F)c2)nc2c(C(=O)N[C@H](C)C3CC3)cnn12 [III-92] | 
